From patent US11331327B2, “Antibacterial use of halogenated salicylanilides” (UNION therapeutics A/S, priority 2014, dated 2022)
In brackets after ≈: the same amount, converted by molar mass. Like-named read-outs stand apart in the source and are kept apart here.

System: S. aureus clinical isolates and S. aureus ATCC 29213
Experiment: MIC assay according to CLSI criteria, Example 2, S. aureus strains
Format: cell-based, Staphylococcus aureus
Conditions: Staphylococcus aureus, read-out: MIC
Procedure: Strains were conserved in Luria Bertani (LB) Broth (S. aureus) or Brain Heart Infusion (BHI) (S. pyogenes) supplemented with glycerol 15% (v/v) at −80° C., and reactivated by isolation on LB (S. aureus) or BHI (S. pyogenes) agar plates. Strains were cultivated in Mueller Hinton (MH) Broth-cation adjusted (S. aureus) or BHI (S. pyogenes). All strains were cultivated aerobically (microaerobically for S. pyogenes strains) at 37° C.
Bacterial cultures were stopped in their exponential growth phase and plates were inoculated with the approximate concentration of 5×10^5 cells per well. Plates were incubated at 37° C. for 18 hours (S. aureus) or 24 hours (S. pyogenes).

SMILES: CC(=O)O[C@H]1C[C@@]2(C)[C@@H](C[C@@H](O)[C@H]3[C@@]4(C)CC[C@@H](O)[C@@H](C)[C@@H]4CC[C@@]32C)/C1=C(\CCC=C(C)C)C(=O)O [Fusidic acid]
- MIC (ATCC 29213 / MRSA, strain MRSA 15): > 16 µg/mL
- MIC (ATCC 29213 / MRSA, strain MRSA 16): 0.25 µg/mL (≈ 0.484 µM)
- MIC (ATCC 29213 / MRSA, strain MRSA 17): 4 µg/mL (≈ 7.74 µM)
- MIC (ATCC 29213 / MRSA, strain MRSA 18): 0.25 µg/mL (≈ 0.484 µM)
- MIC (ATCC 29213 / MRSA, strain MRSA 19): 0.125 µg/mL (≈ 0.242 µM)
- MIC (ATCC 29213 / MRSA, strain MRSA 20): 0.125 µg/mL (≈ 0.242 µM)
- MIC (ATCC 29213 / MRSA, strain MRSA 21): 0.125 µg/mL (≈ 0.242 µM)
- MIC (ATCC 29213 / MRSA, strain MRSA 22): > 16 µg/mL
- MIC (ATCC 29213 / MRSA, strain MRSA 23): 0.25 µg/mL (≈ 0.484 µM)
- MIC (ATCC 29213 / MRSA, strain MRSA 24): 0.25 µg/mL (≈ 0.484 µM)
- MIC (ATCC 29213 / MRSA, strain MRSA 25): 16 µg/mL (≈ 31 µM)
- MIC (ATCC 29213 / MRSA, strain MRSA 26): 0.5 µg/mL (≈ 0.968 µM)
- MIC (ATCC 29213 / MRSA, strain MRSA 27): 0.25 µg/mL (≈ 0.484 µM)
- MIC (ATCC 29213 / MRSA, strain MRSA 27b): 8 µg/mL (≈ 15.5 µM)
- MIC (ATCC 29213 / MRSA, strain MRSA 28): 0.06 µg/mL (≈ 0.116 µM)
- MIC (ATCC 29213 / MRSA, strain MRSA 29): 4 µg/mL (≈ 7.74 µM)
- MIC (ATCC 29213 / MRSA, strain MRSA 30): 0.125 µg/mL (≈ 0.242 µM)
- MIC (ATCC 29213 / MRSA, strain MRSA 31): 0.25 µg/mL (≈ 0.484 µM)
- MIC (ATCC 29213 / MRSA, strain MRSA 32): 0.5 µg/mL (≈ 0.968 µM)
- MIC (ATCC 29213 / MRSA, strain MRSA 33): 0.5 µg/mL (≈ 0.968 µM)
- MIC (ATCC 29213 / MRSA, strain MRSA 34): 0.25 µg/mL (≈ 0.484 µM)
- MIC (ATCC 29213 / MRSA, strain MRSA 35): 16 µg/mL (≈ 31 µM)
- MIC (ATCC 29213 / MRSA, strain MRSA 36): 8 µg/mL (≈ 15.5 µM)
- MIC (ATCC 29213 / MRSA, strain MRSA 37): 0.5 µg/mL (≈ 0.968 µM)
- MIC (ATCC 29213 / MRSA, strain MRSA 38): 8 µg/mL (≈ 15.5 µM)
- MIC (ATCC 29213 / MRSA, strain MRSA 39): 8 µg/mL (≈ 15.5 µM)
- MIC (ATCC 29213 / MRSA, strain MRSA 40): 0.125 µg/mL (≈ 0.242 µM)
- MIC (ATCC 29213 / MRSA, strain MRSA 41): > 16 µg/mL
- MIC (ATCC 29213 / MRSA, strain MRSA 42): 0.25 µg/mL (≈ 0.484 µM)
- MIC (ATCC 29213 / MRSA, strain MRSA 43): 0.125 µg/mL (≈ 0.242 µM)
- MIC (ATCC 29213 / MRSA, strain MRSA 44): 4 µg/mL (≈ 7.74 µM)
- MIC (ATCC 29213 / MRSA, strain MRSA 45): 0.06 µg/mL (≈ 0.116 µM)
- MIC (ATCC 29213 / MRSA, strain MRSA 46): 0.06 µg/mL (≈ 0.116 µM)
- MIC (ATCC 29213 / MRSA, strain MRSA 47): 0.06 µg/mL (≈ 0.116 µM)
- MIC (ATCC 29213 / MRSA, strain MRSA 48): 2 µg/mL (≈ 3.87 µM)
- MIC (ATCC 29213 / MRSA, strain MRSA 49): 0.25 µg/mL (≈ 0.484 µM)
- MIC (ATCC 29213 / MRSA, strain MRSA 50): 0.03 µg/mL (≈ 0.0581 µM)
- MIC (ATCC 29213 / MRSA, strain MRSA 51): 0.13 µg/mL (≈ 0.252 µM)
- MIC (ATCC 29213 / MRSA, strain MRSA 52): 0.06 µg/mL (≈ 0.116 µM)
- MIC (ATCC 29213 / MRSA, strain MRSA 53): 0.25 µg/mL (≈ 0.484 µM)
- MIC (ATCC 29213 / MRSA, strain MRSA 54): 0.125 µg/mL (≈ 0.242 µM)
- MIC (ATCC 29213 / MRSA, strain MRSA 55): 4 µg/mL (≈ 7.74 µM)
- MIC (ATCC 29213 / MRSA, strain MRSA 56): 0.06 µg/mL (≈ 0.116 µM)
- MIC (ATCC 29213 / MRSA, strain MRSA 57): 0.125 µg/mL (≈ 0.242 µM)
- MIC (ATCC 29213 / MRSA, strain MRSA 58): 4 µg/mL (≈ 7.74 µM)
- MIC (ATCC 29213 / MRSA, strain MRSA 59): 0.06 µg/mL (≈ 0.116 µM)
- MIC (ATCC 29213 / MRSA, strain MRSA 60): 8 µg/mL (≈ 15.5 µM)
- MIC (ATCC 29213 / MRSA, strain MRSA 61): 0.06 µg/mL (≈ 0.116 µM)
- MIC (ATCC 29213 / MRSA, strain MRSA 62): 0.06 µg/mL (≈ 0.116 µM)
- MIC (ATCC 29213 / MRSA, strain MRSA 63): 0.125 µg/mL (≈ 0.242 µM)
- MIC (ATCC 29213 / MRSA, strain MRSA 64): 0.25 µg/mL (≈ 0.484 µM)
- MIC (ATCC 29213 / MRSA, strain MRSA 65): 0.06 µg/mL (≈ 0.116 µM)
- MIC (ATCC 29213 / MRSA, strain MRSA 66): 0.06 µg/mL (≈ 0.116 µM)
- MIC (ATCC 29213 / MRSA, strain MRSA 67): 0.25 µg/mL (≈ 0.484 µM)
- MIC (ATCC 29213 / MRSA, strain MRSA 68): 0.125 µg/mL (≈ 0.242 µM)
- MIC (ATCC 29213 / MRSA, strain MRSA 69): 4 µg/mL (≈ 7.74 µM)
- MIC (ATCC 29213 / MRSA, strain MRSA 70): 8 µg/mL (≈ 15.5 µM)
- MIC (ATCC 29213 / MRSA, strain MRSA 71): 0.06 µg/mL (≈ 0.116 µM)
- MIC (ATCC 29213 / MRSA, strain MRSA 72): 16 µg/mL (≈ 31 µM)
- MIC (ATCC 29213 / MRSA, strain MRSA 73): 0.25 µg/mL (≈ 0.484 µM)
- MIC (ATCC 29213 / MRSA, strain MRSA 74): 0.25 µg/mL (≈ 0.484 µM)
- MIC (ATCC 29213 / MRSA, strain MRSA 75): 0.5 µg/mL (≈ 0.968 µM)
- MIC (ATCC 29213 / MRSA, strain MRSA 76): 0.25 µg/mL (≈ 0.484 µM)
- MIC (ATCC 29213 / MRSA, strain MRSA 77): 16 µg/mL (≈ 31 µM)
- MIC (ATCC 29213 / MRSA, strain MRSA 78): 0.125 µg/mL (≈ 0.242 µM)
- MIC (ATCC 29213 / MRSA, strain MRSA 79): 0.5 µg/mL (≈ 0.968 µM)
- MIC (ATCC 29213 / MRSA, strain MRSA 80): 0.125 µg/mL (≈ 0.242 µM)
- MIC (ATCC 29213 / MRSA, strain MRSA 81): 0.25 µg/mL (≈ 0.484 µM)
- MIC (ATCC 29213 / MRSA, strain MRSA 82): 8 µg/mL (≈ 15.5 µM)
- MIC (ATCC 29213 / MRSA, strain MRSA 83): 0.06 µg/mL (≈ 0.116 µM)
- MIC (ATCC 29213 / MRSA, strain MRSA 84): 8 µg/mL (≈ 15.5 µM)
- MIC (ATCC 29213 / MRSA, strain MRSA 85): 4 µg/mL (≈ 7.74 µM)
- MIC (ATCC 29213 / MRSA, strain MRSA 86): > 16 µg/mL
- MIC (ATCC 29213 / MRSA, strain MRSA 87): 0.125 µg/mL (≈ 0.242 µM)
- MIC (ATCC 29213 / MRSA, strain MRSA 88): 0.06 µg/mL (≈ 0.116 µM)
- MIC (ATCC 29213 / MRSA, strain MRSA 89): 0.06 µg/mL (≈ 0.116 µM)
- MIC (ATCC 29213 / MRSA, strain MRSA 90): 16 µg/mL (≈ 31 µM)
- MIC (ATCC 29213 / MRSA, strain MRSA 91): 0.25 µg/mL (≈ 0.484 µM)
- MIC (ATCC 29213 / MRSA, strain MRSA 92): 8 µg/mL (≈ 15.5 µM)
- MIC (ATCC 29213 / MRSA, strain MRSA 93): 0.02 µg/mL (≈ 0.0387 µM)
- MIC (ATCC 29213 / MRSA, strain MRSA 94): 0.125 µg/mL (≈ 0.242 µM)
- MIC (ATCC 29213 / MRSA, strain MRSA 95): 8 µg/mL (≈ 15.5 µM)
- MIC (ATCC 29213 / MRSA, strain MRSA 96): 0.125 µg/mL (≈ 0.242 µM)
- MIC (ATCC 29213 / MRSA, strain MRSA 97): 8 µg/mL (≈ 15.5 µM)
- MIC (ATCC 29213 / MRSA, strain MRSA 98): 0.06 µg/mL (≈ 0.116 µM)
- MIC (ATCC 29213 / MRSA, strain MRSA 99): 0.125 µg/mL (≈ 0.242 µM)
- MIC (ATCC 29213 / MRSA, strain MRSA 100): 0.125 µg/mL (≈ 0.242 µM)
- MIC (ATCC 29213 / MRSA, strain MRSA 101): 8 µg/mL (≈ 15.5 µM)
- MIC (ATCC 29213 / MRSA, strain MRSA 102): 0.06 µg/mL (≈ 0.116 µM)
- MIC (ATCC 29213 / MRSA, strain MRSA 103): 8 µg/mL (≈ 15.5 µM)
- MIC (ATCC 29213 / MRSA, strain MRSA 104): 0.25 µg/mL (≈ 0.484 µM)
- MIC (ATCC 29213 / MRSA, strain MRSA 105): 0.125 µg/mL (≈ 0.242 µM)
- MIC (ATCC 29213 / MRSA, strain MRSA 106): 0.125 µg/mL (≈ 0.242 µM)
- MIC (ATCC 29213 / MRSA, strain MRSA 107): 0.25 µg/mL (≈ 0.484 µM)
- MIC (ATCC 29213 / MRSA, strain MRSA 108): 4 µg/mL (≈ 7.74 µM)
- MIC (ATCC 29213 / MRSA, strain MRSA 109): 0.25 µg/mL (≈ 0.484 µM)
- MIC (ATCC 29213 / MRSA, strain MRSA 110): 0.06 µg/mL (≈ 0.116 µM)
- MIC (ATCC 29213 / MRSA, strain MRSA 111): 8 µg/mL (≈ 15.5 µM)
- MIC (ATCC 29213 / MRSA, strain MRSA 112): 0.06 µg/mL (≈ 0.116 µM)
- MIC (ATCC 29213 / MRSA, strain MRSA 113): 0.125 µg/mL (≈ 0.242 µM)
- MIC (ATCC 29213 / MSSA, strain MSSA 01): 4 µg/mL (≈ 7.74 µM)
- MIC (ATCC 29213 / MSSA, strain MSSA 02): 4 µg/mL (≈ 7.74 µM)
- MIC (ATCC 29213 / NEWMAN, strain Newman): 0.25 µg/mL (≈ 0.484 µM)
